Data taken from US20180296447A1, “BIOCIDAL COMPOSITIONS AND RELATED METHODS” (Imerys Filtration Minerals, Inc., priority 2015, published 2018).

Test system: Streptococcus mutans UA159 (ATCC 700610)
Experiment: Direct bacterial killing experiment, spiral plating viability
Assay type: cell-based
Experimental: A direct bacterial killing experiment was done using spiral plating to measure the viability of the Streptococcus mutans UA159 (ATCC 700610) (S. mutans). Streptococcus mutans is facultatively anaerobic, gram-positive coccus-shaped bacterium commonly found in the human oral cavity and is a significant contributor to tooth decay.
All of Examples 4-6 were measured blindly without any knowledge of their composition. This was accomplished by pipetting 1 ml of the diluted sample powder particles (100 mg/ml) into 3 ml of Tryptic Soy broth containing 1% sucrose (TSBS) and 20 ul of an overnight culture of S. mutans. The inoculated suspensions were incubated for 24 hours at 37° C. in 5% CO2, diluted 1:10 and 1:1000, and spiral plated onto blood agar plates. The colonies on the plates were counted in a Colony Forming Unit (CFU) after 24 hours of incubation. Regarding controls, 0.12% chlorhexidine (CHX) was used a positive control, and sterile water was used as a negative control.

## [H]/N=C(\N/C(=N/[H])NCCCCCCNC(=N)NC(=N)Nc1ccc(Cl)cc1)Nc1ccc(Cl)cc1 [CHX control, chlorhexidine]
24 hours incubation
  Inhibition of S. mutans in the viability assay (in words): significantly inhibited
S. mutans, 1 ml of 100 mg/ml sample powder in 3 ml TSBS, 24 hours at 37° C., 5% CO2, CHX 0.12%
  Mean (CFU/ml): 1.67 × 10^2 ± 0.047 CFU/ml
